Test [1] deals with KB. The test is described as follows: Cytotoxicity against human KB cells assessed as reduction in cell viability at 12.5 uM after 72 hrs by MTT assay. In kind it is functional, cell-based.
Test [2] concerns the target T1, DNA topoisomerase 1 (Homo sapiens) (UniProt P11387).
T1 sequence (whole entry): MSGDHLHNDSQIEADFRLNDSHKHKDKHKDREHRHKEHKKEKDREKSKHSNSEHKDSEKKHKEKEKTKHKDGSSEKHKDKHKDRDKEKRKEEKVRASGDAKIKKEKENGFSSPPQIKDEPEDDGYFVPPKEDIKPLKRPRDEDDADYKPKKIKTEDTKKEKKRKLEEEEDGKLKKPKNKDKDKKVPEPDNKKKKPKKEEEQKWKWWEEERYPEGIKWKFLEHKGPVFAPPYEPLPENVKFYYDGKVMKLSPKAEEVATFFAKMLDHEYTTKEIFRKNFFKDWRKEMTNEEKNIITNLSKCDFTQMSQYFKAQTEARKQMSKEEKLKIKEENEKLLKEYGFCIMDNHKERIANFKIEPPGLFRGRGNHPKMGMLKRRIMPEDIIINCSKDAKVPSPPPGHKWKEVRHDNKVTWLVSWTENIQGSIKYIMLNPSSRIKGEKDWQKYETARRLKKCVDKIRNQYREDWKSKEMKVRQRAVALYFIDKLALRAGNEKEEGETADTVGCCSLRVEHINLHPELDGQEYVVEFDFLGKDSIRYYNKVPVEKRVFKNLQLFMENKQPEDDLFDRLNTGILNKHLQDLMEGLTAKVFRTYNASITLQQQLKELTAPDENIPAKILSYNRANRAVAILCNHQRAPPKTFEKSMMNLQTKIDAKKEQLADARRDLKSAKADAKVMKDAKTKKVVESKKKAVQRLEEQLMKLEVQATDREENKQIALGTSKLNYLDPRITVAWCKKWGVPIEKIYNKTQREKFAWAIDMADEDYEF
The test is described as follows: Inhibition of human topoisomerase-1 expressed in baculovirus infected insect cells at 80 uM using supercoiled pGEM-5Zf(+) plasmid DNA as substrate after 30 mins by agarose gel electrophoresis method.

In test [3] the test system is KB. In words: Cytotoxicity against human KB cells assessed as reduction in cell viability after 72 hrs by MTT assay. In kind it is functional, cell-based. For orientation: Tetrazolium assays rely on reduction of a dye to a coloured formazan, in cell work by metabolically active cells.
The next test has as its system MDA-MB-231. The test is described as follows: Cytotoxicity against human MDA-MB-231 cells assessed as reduction in cell viability after 72 hrs by MTT assay. In kind it is functional, cell-based. Particulars: MDA-MB-231, 72 h.
Another test concerns LNCaP. In words: Cytotoxicity against human LNCAP cells assessed as reduction in cell viability after 72 hrs by MTT assay. In kind it is functional, cell-based.
Another test has as its system HT-1080. The test is described as follows: Cytotoxicity against human HT1080 cells assessed as reduction in cell viability after 72 hrs by MTT assay. The class given is functional, cell-based. Particulars: HT-1080, 72 h.

pIC50: −log10 of the molar value. The source made the active and inactive calls. No cut-off for these calls is given here. Where only a bound is given, the exact number is not on record here.

Consider `O=c1c2ccccc2nc2n1Cc1cc3ccccc3nc1-2`, for which the outcome in the test with KB [1] was Active.

`Cc1ccc2nc3c(cc2c1)Cn1c-3nc2ccccc21`: in test [2], the inhibition result was “Active”. Further, the negative-log IC50 (pIC50) (usually −log10 of the IC50, conventionally taken in molar units) with KB [3] is 4.95; in the test on MDA-MB-231, less than 4.00; in the test with LNCaP, 4.20; with HT-1080 it was 5.03.

On to `c1ccc2nc3c(cc2c1)Cn1c-3nc2ccccc21`, for which the inhibition entry in test [2] was “Active”. The negative logarithm of the IC50 (pIC50) in the test with KB [3] is 4.96; in the test with MDA-MB-231 it was 4.92; in the test with LNCaP it was 4.95; in the test with HT-1080 it was 4.28.

Consider `COc1ccc2cc3c(nc2c1)-c1nc2ccccc2n1C3`, for which the inhibition result in test [2] is “Active”. In addition, the pIC50 is 4.39 in the test with KB [3], less than 4.00 in the test on MDA-MB-231, 4.60 with LNCaP and 4.02 in the test on HT-1080.

Consider `COc1ccc2nc3c(cc2c1)Cn1c-3nc2ccccc21`, for which the inhibition entry in test [2] is “Active”. Besides, the negative logarithm of the IC50 (pIC50) is 4.70 with KB [3], less than 4.00 with MDA-MB-231, 4.61 in the test on LNCaP and 4.28 with HT-1080.

In the case of `Clc1cccc2cc3c(nc12)-c1nc2ccccc2n1C3`, the pIC50 is 4.94 with KB [3], 4.16 with MDA-MB-231, 4.62 in the test on LNCaP and 4.54 in the test with HT-1080. Besides, in the test on KB [1], the outcome was Active.

On to `Cc1ccc2cc3c(nc2c1)-c1nc2ccccc2n1C3`, for which the inhibition result in test [2] is “Active”. The negative-log IC50 (pIC50) is 4.12 with KB [3], less than 4.00 in the test with MDA-MB-231, 4.41 in the test on LNCaP and 5.06 with HT-1080.

As for `Cc1cccc2cc3c(nc12)-c1nc2ccccc2n1C3`, the inhibition result in test [2] was “Active”. The pIC50 was 4.70 in the test on KB [3], less than 4.00 with MDA-MB-231, 4.62 with LNCaP and less than 4.00 in the test on HT-1080.

As to `Brc1cccc2cc3c(nc12)-c1nc2ccccc2n1C3`, in test [2], the inhibition entry is “Active”. The pIC50 is 4.82 with KB [3], 4.95 with MDA-MB-231, 5.08 in the test with LNCaP and 4.18 in the test on HT-1080.

For `COc1cccc2cc3c(nc12)-c1nc2ccccc2n1C3`, the inhibition entry in test [2] is “Active”. In addition, the negative-log IC50 (pIC50) was 4.77 in the test with KB [3], less than 4.00 in the test with MDA-MB-231, 4.70 in the test on LNCaP and less than 4.00 in the test with HT-1080.
